Assay results reported in US20030157704A1, “Reagents and methods for identifying and modulating expression of genes regulated by CDK inhibitors” (priority 2001, published 2003).
Values belong to the molecule of their own block, whether it stands above or below them.

Experiments:
[1] = tested on: NK4 promoter; assay: Luciferase assay in LuNK4p21 cell line (NK4 promoter-luciferase, IPTG-inducible p21); type: cell-based, human
Description: This assay was performed as follows. Cells were plated at a density of 40,000 cells/well in 12 well plates in 1 mL of media containing penicillin/streptomycin, glutamine and 10% fetal calf serum (FCS). After attachment, cells were treated with 50 μM IPTG or left untreated for different periods of time. Luciferase activity was then measured as described in Example 8 above. An additional aliquot was removed from the cell lysate to measure protein concentration using the Bio-Rad protein assay kit (Bradford assay). Luciferase activity for each sample was normalized to protein content and expressed as luciferase activity/μg protein.
Luciferase assays were performed substantially as described in Example 9. Luciferase activity was measured after 16 hrs of incubation with or without 50 μM IPTG, followed by an additional 20 hr treatment in the presence or in the absence of 20 mM sodium salicylate, 1 mM sulindac, or 10 mM aspirin. […] NSAID concentrations were based on the pharmacologic concentrations of these agents in the serum of patients required for their anti-inflammatory properties (Yin et al., 1998, ibid.).

[2] = biological target: CDK4 (UniProt P11802); assay: cell-based or functional assay
[3] = biological target: CDK6 (UniProt Q00534); assay: cell-based or functional assay
[4] = tested on: p21-inducible genes; assay: RT-PCR of endogenous p21-inducible genes in LuNK4p21 cells; type: cell-based, human
Description: To determine whether NFκB-inhibiting NSAID inhibited not only the induction of transcription from the NK4 promoter but also RNA expression of the endogenous p21-inducible genes, LuNK4p21 cells were plated at 125,000 cells per well in 6-well plates and were either untreated or treated with 50 μM IPTG for 48 hrs (the period of time required for maximal stimulation of p21-inducible genes; Chang et al., 2000, Proc. Natl. Acad. Sci. USA 97: 4291-4296), in the presence or in the absence of sulindac, at 250 μM, 500 μM or 1 mM concentrations. After this incubation, RNA was extracted from the cells using Qiagen RNeasy Mini Kit, and relative RNA levels of several p21-inducible genes were determined by reverse transcription-PCR (RT-PCR), essentially as described by Noonan et al. (1990, Proc. Natl. Acad. Sci. USA 87: 7160-7164), except that β-actin rather than β2-microglobulin was used for cDNA normalization. The PCR cycles were as follows: for the 1st cycle, 3 min for denaturation, 2 min for annealing and 2 min for extension, and the rest of cycles, 30 sec for denaturation; 30 sec for annealing; and 1 min for extension.

[5] = 25 μM NSAID for 20 hr after 16 hrs with 50 μM IPTG

CDK6, sequence (Q00534 whole entry): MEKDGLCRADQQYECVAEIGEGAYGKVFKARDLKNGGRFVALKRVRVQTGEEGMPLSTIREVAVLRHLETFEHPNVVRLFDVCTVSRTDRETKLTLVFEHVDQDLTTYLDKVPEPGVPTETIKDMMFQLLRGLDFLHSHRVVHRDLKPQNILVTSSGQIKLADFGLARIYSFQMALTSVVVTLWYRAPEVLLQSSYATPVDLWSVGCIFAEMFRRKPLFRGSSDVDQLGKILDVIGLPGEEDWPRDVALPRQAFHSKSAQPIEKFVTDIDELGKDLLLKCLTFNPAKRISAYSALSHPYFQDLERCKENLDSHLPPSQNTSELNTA
CDK4, sequence (P11802 2-303 limits assumed): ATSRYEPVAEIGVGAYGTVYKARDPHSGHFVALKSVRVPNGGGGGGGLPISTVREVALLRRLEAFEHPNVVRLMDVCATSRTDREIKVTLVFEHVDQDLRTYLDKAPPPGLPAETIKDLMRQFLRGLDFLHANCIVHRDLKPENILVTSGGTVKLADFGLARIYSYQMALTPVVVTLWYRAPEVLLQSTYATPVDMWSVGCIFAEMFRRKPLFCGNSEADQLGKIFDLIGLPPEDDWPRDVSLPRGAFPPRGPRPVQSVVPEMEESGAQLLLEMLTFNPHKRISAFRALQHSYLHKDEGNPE

Molecule: COc1ccc2c(c1)c(CC(=O)O)c(C)n2C(=O)c1ccc(Cl)cc1 [indomethacin]
- induction of luciferase expression by IPTG [1, 5]: no significant difference

- cells arrested in G1 after 24 hrs of IPTG treatment (FACS analysis of DNA content) [2]: 93%
- cells arrested in G1 after 24 hrs of IPTG treatment (FACS analysis of DNA content) [3]: 93%
Molecule: p16^Ink4A (from UniProt P42771 1-156)

Molecule: CC(=O)Oc1ccccc1C(=O)O [aspirin]
- induction of luciferase expression by IPTG ([1]; 10 mM aspirin for 20 hr after 16 hrs with 50 μM IPTG): completely or almost completely abolished

Molecule: CC(C)Cc1ccc(C(C)C(=O)O)cc1 (stereo not shown) [ibuprofen]
- induction of luciferase expression by IPTG [1, 5]: no significant difference

Molecule: CC1=C(CC(=O)O)c2cc(F)ccc2/C1=C\c1ccc([S+](C)[O-])cc1 (stereo not shown) [sulindac]
- effects of IPTG on APP gene RNA ([4]; 250 and 500 μM sulindac): diminished
- NK4 gene expression (RNA) ([4]; absence of IPTG, sulindac 250 μM, 500 μM or 1 mM, 48 hrs): very little effect
- gene expression of all the other tested genes ([4]; absence of IPTG, sulindac 250 μM-1 mM): dose-dependent increase
- t-TGase RNA ([4]; compared with NK4, with and without IPTG, sulindac 250 μM-1 mM): Very similar results
- p21-induced transcription of most of the tested genes ([4]; moderate dose of sulindac (250 μM)): inhibits the ability of p21 to induce transcription
- effects of IPTG on CTGF gene RNA ([4]; only by 250 μM sulindac): diminished
- effects of IPTG on Mac2-binding protein (Mac2-BP) gene RNA ([4]; only by 250 μM sulindac): diminished
- effects of IPTG on p66Shc gene RNA ([4]; only by 250 μM sulindac): diminished
- NK4 RNA levels ([4]; presence of 50 μM IPTG, all concentrations of sulindac (250 μM, 500 μM, 1 mM), 48 hrs): dose-dependent decrease
- gene expression of all the other tested genes ([4]; presence of IPTG, highest dose of sulindac (1 mM)): did not decrease gene expression
- IPTG-induced RNA levels of prosaposin ([4]; sulindac 250 μM, 500 μM, 1 mM): None of the tested sulindac concentrations produced a significant decrease
- IPTG-induced RNA levels of superoxide dismutase 2 (SOD2) ([4]; sulindac 250 μM, 500 μM, 1 mM): None of the tested sulindac concentrations produced a significant decrease
- induction of luciferase expression by IPTG ([1]; 1 mM sulindac for 20 hr after 16 hrs with 50 μM IPTG): completely or almost completely abolished

Molecule: O=C([O-])c1ccccc1O.[Na+] [sodium salicylate]
- induction of luciferase expression by IPTG ([1]; 20 mM sodium salicylate for 20 hr after 16 hrs with 50 μM IPTG): completely or almost completely abolished
